Experimental findings from ChEMBL document CHEMBL1150984, “2,4,5- triarylimidazole inhibitors of IL-1 biosynthesis” (Bioorg Med Chem Lett, 1995) are described below.

By IC50 is commonly meant the point on the concentration scale where inhibition reaches its midpoint.

In this assay the target is T1, Polyunsaturated fatty acid 5-lipoxygenase (Rattus norvegicus, UniProt P12527).
T1 sequence (P12527 whole entry): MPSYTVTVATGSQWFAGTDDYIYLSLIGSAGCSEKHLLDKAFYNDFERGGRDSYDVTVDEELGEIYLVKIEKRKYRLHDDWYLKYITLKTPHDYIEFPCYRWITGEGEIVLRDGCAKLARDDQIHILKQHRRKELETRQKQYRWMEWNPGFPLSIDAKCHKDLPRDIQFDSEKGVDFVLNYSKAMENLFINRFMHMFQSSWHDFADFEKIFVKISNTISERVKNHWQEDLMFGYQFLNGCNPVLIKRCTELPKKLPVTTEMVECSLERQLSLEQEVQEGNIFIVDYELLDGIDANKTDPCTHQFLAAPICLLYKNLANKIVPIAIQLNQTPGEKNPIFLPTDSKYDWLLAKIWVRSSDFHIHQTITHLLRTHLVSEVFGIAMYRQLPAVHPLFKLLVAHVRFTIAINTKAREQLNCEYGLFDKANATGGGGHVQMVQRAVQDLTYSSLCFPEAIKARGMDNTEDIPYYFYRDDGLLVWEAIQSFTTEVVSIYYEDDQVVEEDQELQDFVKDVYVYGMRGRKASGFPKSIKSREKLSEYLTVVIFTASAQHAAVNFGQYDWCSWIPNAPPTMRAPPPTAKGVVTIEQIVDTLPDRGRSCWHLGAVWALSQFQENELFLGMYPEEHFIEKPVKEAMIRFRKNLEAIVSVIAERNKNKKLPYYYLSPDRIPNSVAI
The assay is described as follows: biochemical. The format is cell-based, RBL-1.
Description: Inhibitory activity against 5-lipoxygenase enzyme from RBL-1 cells
`C[S+]([O-])c1ccc(-c2nc(-c3ccc(F)cc3)c(-c3ccnc4ccccc34)[nH]2)cc1` (stereo unspecified) had an IC50 of 7.2 µM.
As to `N#CN=C(N)Cc1ccc(-c2nc(-c3ccncc3)c(-c3ccc(F)cc3)[nH]2)cc1`, the IC50 came to 3.8 µM.
With `CN(C)c1ccc(-c2nc(-c3ccc(F)cc3)c(-c3ccncc3)[nH]2)cc1`, the half-maximal inhibitory concentration (IC50) is 5.6 µM.
In turn, `CC1(C)NC(c2ccc(-c3nc(-c4ccc(F)cc4)c(-c4ccncc4)[nH]3)cc2)=NO1` had an IC50 of 7.2 µM.
In turn, `Oc1ccccc1-c1nc(-c2ccc(F)cc2)c(-c2ccncc2)[nH]1` had a half-inhibitory concentration (IC50) of 4.1 µM.
Turning to `CN(Cc1ccccc1)Cc1ccc(-c2nc(-c3ccncc3)c(-c3ccc(F)cc3)[nH]2)cc1`, the concentration for half-maximal inhibition (IC50) came to 0.8 µM.
